Reference: patent US7485646B2, “Serotonin 5-HT3 receptor agonist” (Research Foundation Itsuu Laboratory, priority 2004, dated 2009)
Where “and” joins values, the source holds several entries; their conditions need not be identical. Equal entries are not always repeated.

Assays:
[1] = biological target: T1, serotonin 5-HT3 receptor (Homo sapiens, UniProt P46098); assay: Serotonin 5-HT3 receptor binding affinity ([3H]-GR-65630 binding inhibition); conditions: 1 μM test compound, membrane fraction from HEK-293 cells; for inhibition at 1 µM: read-out: [3H]-GR65630 binding inhibition rate at 1 μM
T1 construct: expressed in transfected cells; host or cells: HEK-293 cells (membrane fraction)
T1 sequence (P46098 24-478): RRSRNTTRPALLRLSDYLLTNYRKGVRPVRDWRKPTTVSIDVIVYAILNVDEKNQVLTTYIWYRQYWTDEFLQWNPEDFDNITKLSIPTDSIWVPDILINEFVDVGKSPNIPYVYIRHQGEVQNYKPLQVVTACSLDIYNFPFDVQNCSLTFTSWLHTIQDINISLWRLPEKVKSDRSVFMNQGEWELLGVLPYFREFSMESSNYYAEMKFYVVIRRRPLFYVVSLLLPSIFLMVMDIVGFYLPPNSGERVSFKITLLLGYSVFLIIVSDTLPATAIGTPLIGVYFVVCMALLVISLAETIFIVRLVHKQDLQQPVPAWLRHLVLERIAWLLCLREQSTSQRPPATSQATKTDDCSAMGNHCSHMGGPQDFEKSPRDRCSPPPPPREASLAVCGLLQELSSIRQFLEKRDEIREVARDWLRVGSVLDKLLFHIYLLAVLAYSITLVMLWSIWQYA
Protocol: Serotonin 5-HT3 receptor binding affinities of the urea derivatives of the present invention and typical compounds among known urea derivatives, N-phenyl-4-methylpiperazine-1-carboxyamide (A), N-(4,5-dichlorophenyl)-4-methylppiperazine-1-carboxyamide (B), N-(3,5-trifluoromethylphenyl)-4-methylpiperazine-1-carboxyamide (C), N-(3-fluorophenyl)-4-methylpiperazine-1-carboxyamide (D) and N-(5-chloro-2-methoxyphenyl)-(4-tert-butyloxycarbonylpiperazine)-1-carboxyamide (E), were determined by the following method, and the results are shown in Table 1. The test compounds of the present invention are mentioned with the example numbers.
According to the method of Boess et al. (Neuropharmacology, 36, 637-647, 1997), affinities were examined by using a membrane fraction obtained from HEK-293 cells and a ligand selective to the serotonin 5-HT3 receptor, [3H]-GR-65630 [3-(5-methyl-1H-imidazol-4-yl)-1-(1-methyl-1H-indol-3-yl)-1-propanone] on the basis of inhibitory actions of the test compounds on the specific binding to GR-65630 as an index.

[2] = system: cisplatin-induced emesis in beagles; assay: Antiemetic action on cisplatin-induced emesis in dogs; format: in vivo; conditions: for Number of emesis 0 to 120 (minute) / Number of emesis 121 to 360 (minute) / Time of initial occurrence: 0.5 mg/kg i.v. 30 minutes before cisplatin 3 mg/kg i.v., one value per animal
Protocol: Actions on cisplatin-induced emesis in beagles of 1-(2-hydroxyethyl)-1-methyl-4-(3,5-dichlorophenylcarbamoyl)piperazinium bromide as the compound of the present invention and 5-chloro-2-(1-homopiperazinyl)-7-methylbenzooxazole (F) (International Publication WO00/31073), which is a benzoxazole derivative having a chemical structure similar to that of the novel urea derivative of the present invention among the known serotonin 5-HT3 receptor partially activating agents, were determined by the following method. The compound of the present invention is mentioned with the example number.
After starvation for 16 hours from one day before the day of the test, beagles (each group consisted of two dogs) were given 300 g of feed pellets and intravenously received cisplatin at a dose of 3 mg/kg 30 minutes later. The test compound was intravenously given 30 minutes before the administration of cisplatin, and frequency and time of emesis were monitored over 6 hours.

[3] = biological target: T2, serotonin 5-HT3 receptor (Cavia porcellus, UniProt O70212); assay: Test for serotonin 5-HT3 receptor partially activating action (guinea pig ileum longitudinal muscle contraction); parameters: species or system Hartley guinea pigs; conditions: for Activating action: guinea pig ileum contraction relative to 2.6 μM serotonin 5-HT; for Antagonistic action: suppression rate of serotonin 5-HT-induced contraction, guinea pig ileum
T2 construct: longitudinal muscle samples were prepared from the ileums of male or female Hartley guinea pigs; from tissue; host or cells: guinea pig ileum longitudinal muscle
T2 sequence (O70212 20-490): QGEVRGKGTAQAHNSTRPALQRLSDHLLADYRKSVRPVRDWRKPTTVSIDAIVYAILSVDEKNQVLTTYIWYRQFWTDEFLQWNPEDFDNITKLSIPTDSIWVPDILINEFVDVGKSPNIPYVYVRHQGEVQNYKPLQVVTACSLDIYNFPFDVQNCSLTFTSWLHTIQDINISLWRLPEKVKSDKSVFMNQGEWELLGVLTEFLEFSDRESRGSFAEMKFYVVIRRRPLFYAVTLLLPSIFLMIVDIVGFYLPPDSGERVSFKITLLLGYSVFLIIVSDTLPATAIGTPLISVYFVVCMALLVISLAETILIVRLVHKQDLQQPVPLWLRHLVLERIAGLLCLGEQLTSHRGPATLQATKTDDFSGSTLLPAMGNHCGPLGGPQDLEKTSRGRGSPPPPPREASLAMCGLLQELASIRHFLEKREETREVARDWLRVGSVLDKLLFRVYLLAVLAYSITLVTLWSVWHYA
Protocol: The serotonin 5-HT3 receptor antagonistic action and the serotonin 5-HT3 receptor activating action of 1-(2-hydroxyethyl)-1-methyl-4-(3,5-dichlorophenylcarbamoyl)piperazinium iodide as the compound of the present invention were determined according to the method of Butler et al. (Br. J. Pharmacol, 94, 397-412, 1988).
About 30-mm longitudinal muscle samples were prepared from the ileums of male or female Hartley guinea pigs (325±25 g). Each sample was hung down in a Magnus tube filled with 10 ml of Krebs solution (pH 7.4, 32° C.) with ventilation of a mixed gas (95% O2, 5% CO2), and loaded with a tension of 1 g, and contractile responses were measured isometrically. The serotonin 5-HT3 receptor activating action of the test compound was represented in terms of a relative value obtained by comparison of the contraction obtained by adding 2.6 μM of serotonin 5-HT to the sample and the contraction of 50% or more obtained within 5 minutes as a percentage based on the maximum contraction. The serotonin 5-HT3 receptor antagonistic action of the test compound was obtained from the contraction suppression rate obtained by adding serotonin 5-HT to the sample.

SMILES: CN1CCN(C(=O)Nc2cc(C(F)(F)F)cc(C(F)(F)F)c2)CC1 [C, N-(3,5-trifluoromethylphenyl)-4-methylpiperazine-1-carboxyamide, reference compound]
- [3H]-GR65630 binding inhibition rate at 1 μM [1]: 2%

SMILES: COc1ccc(Cl)cc1NC(=O)N1CC[N+](C)(C)CC1 [Example 19, 1,1-Dimethyl-4-(2-methoxy-5-chlorophenylcarbamoyl)piperazinium iodide]
- inhibition at 1 µM [1]: 94%

SMILES: C[N+]1(CCO)CCN(C(=O)Nc2cc(Cl)cc(Cl)c2)CC1.[Br-] [Example 30, 1-(2-Hydroxyethyl)-1-methyl-4-(3,5-dichlorophenylcarbamoyl)-piperazinium bromide]
- Emesis at the initial stage of administration (action on the central nerve system) [2]: no emesis was observed at the initial stage
- Suppression of cisplatin-induced emesis in dogs (in words) [2]: effectively suppressed
- Number of emesis 0 to 120 (minute) [2]: 0
- Number of emesis 121 to 360 (minute) [2]: 1 and 0
- Time of initial occurrence [2]: 165 min

SMILES: C[N+]1(CC2CC2)CCN(C(=O)Nc2cc(Cl)cc(Cl)c2)CC1 [Example 13, 1-Cyclopropylmethyl-1-methyl-4-(3,5-dichlorophenylcarbamoyl)-piperazinium bromide]
- inhibition at 1 µM [1]: 98%

SMILES: C=CC[N+]1(C)CCN(C(=O)Nc2cc(Cl)cc(Cl)c2)CC1 [Example 10, 1-Allyl-1-methyl-4-(3,5-dichlorophenylcarbamoyl)piperazinium iodide]
- inhibition at 1 µM [1]: 105%

SMILES: COc1ccc(Cl)cc1NC(=O)N1CCN(C(=O)OC(C)(C)C)CC1 [E, N-(5-chloro-2-methoxyphenyl)-(4-tert-butyloxycarbonylpiperazine)-1-carboxyamide, reference compound]
- [3H]-GR65630 binding inhibition rate at 1 μM [1]: 5%

SMILES: CN1CCN(C(=O)Nc2ccc(Cl)c(Cl)c2)CC1 [B, N-(4,5-dichlorophenyl)-4-methylppiperazine-1-carboxyamide, reference compound]
- [3H]-GR65630 binding inhibition rate at 1 μM [1]: 22%

SMILES: C[N+]1(Cc2ccccc2)CCN(C(=O)Nc2cc(Cl)cc(Cl)c2)CC1 [Example 14, 1-Benzyl-1-methyl-4-(3,5-dichlorophenylcarbamoyl)piperazinium bromide]
- inhibition at 1 µM [1]: 96%

SMILES: C[N+]1(C)CCN(C(=O)Nc2cc(Cl)cc(Cl)c2)CC1 [Example 9, 1,1-Dimethyl-4-(3,5-dichlorophenylcarbamoyl)piperazinium iodide]
- inhibition at 1 µM [1]: 104%

SMILES: CCC[N+]1(C)CCN(C(=O)Nc2cc(Cl)cc(Cl)c2)CC1 [Example 12, 1-Propyl-1-methyl-4-(3,5-dichlorophenylcarbamoyl)piperazinium bromide]
- inhibition at 1 µM [1]: 98%

SMILES: C[N+]1(CCO)CCN(C(=O)Nc2cc(Cl)cc(Cl)c2)CC1.[I-] [Example 11, 1-(2-Hydroxyethyl)-1-methyl-4-(3,5-dichlorophenylcarbamoyl)-piperazinium iodide]
- Activating action ([3]; 1 μM): 0%
- Antagonistic action ([3]; 1 μM): 15%
- Activating action ([3]; 3 μM): 4%
- Antagonistic action ([3]; 3 μM): 30%
- Activating action ([3]; 10 μM): 14%
- Antagonistic action ([3]; 10 μM): 37%
- Activating action ([3]; 30 μM): 31%
- Antagonistic action ([3]; 30 μM): 27%
- Activating action ([3]; 100 μM): 23%
- Antagonistic action ([3]; 100 μM): 36%
- Serotonin 5-HT3 receptor agonist character (in words) ([3]; Table 2): having both the serotonin 5-HT3 receptor antagonistic action and the serotonin 5-HT3 receptor activating action
- inhibition at 1 µM [1]: 104%

SMILES: Cc1cc(Cl)cc2nc(N3CCCNCC3)oc12 [F, 5-chloro-2-(1-homopiperazinyl)-7-methylbenzooxazole, reference compound]
- Time at which emesis occurred after the administration [2]: ≤ 90 min
- Number of emesis 0 to 120 (minute) [2]: 14 and 8
- Number of emesis 121 to 360 (minute) [2]: 15 and 6
- Time of initial occurrence [2]: 88 min and 79 min

SMILES: COc1ccc(Cl)cc1NC(=O)N1CC[N+](C)(CCO)CC1 [Example 21, 1-(2-Hydroxyethyl)-1-methyl-4-(2-methoxy-5-chlorophenylcarbamoyl)-piperazinium iodide]
- inhibition at 1 µM [1]: 98%

SMILES: C=CC[N+]1(C)CCN(C(=O)Nc2cc(Cl)ccc2OC)CC1 [Example 20, 1-Allyl-1-methyl-4-(2-methoxy-5-chlorophenylcarbamoyl)piperazinium iodide]
- inhibition at 1 µM [1]: 92%
